The target in one assay is CDK4/cyclin D3 (Homo sapiens, UniProt P11802). Kind of assay: Inhibition of CDK4/Cyclin D Retinoblastoma Kinase Activity. Type of assay: biochemical. Conditions: for Ki: apparent Ki; for inhibition at 10 µM: read-out: CDK4/D % inhibition at 10 μM. How it is done: (§1) Cyclin-dependent kinase activity was measured by quantifying the enzyme-catalyzed, time-dependent incorporation of radioactive phosphate from [^32P]ATP or [^33P]ATP into a protein substrate. Unless noted otherwise, assays were performed in 96-well plates in a total volume of 50 μL, in the presence of 10 mM HEPES (N-[2-hydroxyethyl]piperazine-N′-[2-ethanesulfonic acid]) (pH 7.4), 10 mM MgCl2, 25 μM adenosine triphosphate (ATP), 1 mg/mL ovalbumin, 5 μg/mL leupeptin, 1 mM dithiothreitol, 10 mM beta-glycerophosphate, 0.1 mM sodium vanadate, 1 mM sodium fluoride, 2.5 mM ethylene glycol-bis(β-aminoethyl ethKer)-N,N,N′N′-tetraacetic acid (EGTA), 2% (v/v) dimethylsulfoxide, and 0.03–0.4 μCi [^32/33P]ATP per reaction. Reactions were initiated with appropriate enzyme, incubated at 30° C., and terminated after 20 minutes by the addition of ethylenediaminetetraacetic acid (EDTA) to 250 mM. The phosphorylated substrate was then captured on a nitrocellulose or phosphocellulose membrane using a 96-well filtration manifold, and unincorporated radioactivity was removed by repeated washing with 0.85% phosphoric acid. Radioactivity was quantified by exposing the dried membranes to a phosphorimager.
CDK4/cyclin D3, sequence (P11802 2-303 limits assumed): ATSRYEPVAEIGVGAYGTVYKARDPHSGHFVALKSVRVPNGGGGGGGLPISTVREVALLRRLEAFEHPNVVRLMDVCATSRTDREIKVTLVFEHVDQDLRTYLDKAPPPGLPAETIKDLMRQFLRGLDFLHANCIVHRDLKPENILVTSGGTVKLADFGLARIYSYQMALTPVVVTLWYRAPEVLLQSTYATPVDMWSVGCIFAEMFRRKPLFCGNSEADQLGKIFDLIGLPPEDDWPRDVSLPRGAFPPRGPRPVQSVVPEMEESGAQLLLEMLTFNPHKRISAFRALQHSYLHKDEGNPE
CDK4/cyclin D3, sequence (P30281 1-264 limits assumed, further chain): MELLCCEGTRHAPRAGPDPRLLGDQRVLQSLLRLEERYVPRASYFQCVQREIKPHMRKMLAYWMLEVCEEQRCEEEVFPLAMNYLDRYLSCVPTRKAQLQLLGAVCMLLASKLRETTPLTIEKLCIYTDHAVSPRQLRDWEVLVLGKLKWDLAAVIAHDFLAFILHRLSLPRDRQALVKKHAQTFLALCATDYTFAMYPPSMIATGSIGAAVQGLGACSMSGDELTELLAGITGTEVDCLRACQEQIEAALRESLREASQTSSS
(§2) Apparent Ki values were measured by assaying enzyme activity in the presence of different inhibitor compound concentrations and subtracting the background radioactivity measured in the absence of enzyme. Inhibition data were fit to an equation for competitive inhibition using Kaleidagraph (Synergy Software), or were fit to an equation for competitive tight-binding inhibition using the software KineTic (BioKin, Ltd.).
Inhibition of CDK4/Cyclin D Retinoblastoma Kinase Activity
A complex of human CDK4 and cyclin D3, or a complex of human CDK4 and genetically truncated (1–264) cyclin D3, was purified using traditional biochemical chromatographic techniques from insect cells that had been co-infected with the corresponding baculovirus expression vectors (see e.g., Meijer and Kim, “Chemical Inhibitors of Cyclin-Dependent Kinases,” Methods in Enzymol,. vol. 283 (1997), pp. 113–128.). The enzyme complex (5 or 50 nM) was assayed with 0.3–0.5 μg of purified recombinant retinoblastoma protein fragment (Rb) as a substrate. The engineered Rb fragment (residues 386–928 of the native retinoblastoma protein; 62.3 kDa) contains the majority of the phosphorylation sites found in the native 106-kDa protein, as well as a tag of six histidine residues for ease of purification. Phosphorylated Rb substrate was captured by microfiltration on a nitrocellulose membrane and quantified using a phosphorimager as described above. For measurement of tight-binding inhibitors, the enzyme complex concentration was lowered to 5 nM, and the assay duration was extended to 60 minutes, during which the time-dependence of product formation was linear.

A further assay addresses T1, CDK2/cyclin A (Homo sapiens, UniProt P24941).
T1 construct: made in house; host or cells: CDK2: insect cells (baculovirus); cyclin A: E. coli
The assay is described as follows: Inhibition of CDK2/Cyclin A Retinoblastoma Kinase Activity. Type of assay: biochemical. The conditions noted are these: for Ki: apparent Ki; for inhibition at 10 µM: read-out: CDK2/A % inhibition at 10 μM. How it is done:
as §1, §2
Inhibition of CDK2/Cyclin A Retinoblastoma Kinase Activity
CDK2 was purified using published methodology (Rosenblatt et al., “Purification and Crystallization of Human Cyclin-dependent Kinase 2,” J. Mol. Biol., vol. 230, 1993, pp. 1317–1319) from insect cells that had been infected with a baculovirus expression vector. […] A complex of CDK2 and proteolyzed cyclin A was prepared and purified by gel filtration. The substrate for this assay was the same Rb substrate fragment used for the CDK4 assays, and the methodology of the CDK2/cyclin A and the CDK4/cyclin D3 assays was essentially the same, except that CDK2 was present at 150 nM or 5 nM. Ki values were measured as described above.

Another assay has as its system HCT 116 cell line. Kind of assay: Inhibition of Cell Growth (MTT tetrazolium salt assay). The format is cell-based. Conditions: Homo sapiens. The protocol:
Inhibition of Cell Growth: Assessment of Cytotoxicity
Inhibition of cell growth was measured using the tetrazolium salt assay, which is based on the ability of viable cells to reduce 3-(4,5-dimethylthiazol-2-yl)-2,5-[2H]-diphenyltetrazolium bromide (MTT) to formazan (Mossman, Journal of Immunological Methods, vol. 65 (1983), pp. 55–58). The water-insoluble purple formazan product was then detected spectrophotometrically. The HCT 116 cell line was grown in 96-well plates. Cells were plated in the appropriate medium at a volume of 135 μl/well in McCoy's 5A Medium. Plates were incubated for four hours before addition of inhibitor compounds. Different concentrations of inhibitor compounds were added in 0.5% (v/v) dimethylsulfoxide (15 μL/well), and cells were incubated at 37° C. (5% CO2) for four to six days (depending on cell type). At the end of the incubation, MTT was added to a final concentration of 0.2 mg/mL, and cells were incubated for 4 hours more at 37° C. After centrifugation of the plates and removal of medium, the absorbance of the formazan (solubilized in dimethylsulfoxide) was measured at 540 nm. The concentration of inhibitor compound causing 50% inhibition of growth was determined from the linear portion of a semi-log plot of inhibitor concentration versus percentage inhibition. All results were compared to control cells treated only with 0.5% (v/v) dimethylsulfoxide.
(In general: Tetrazolium assays rely on reduction of a dye to a coloured formazan, in cell work by metabolically active cells.)

Setting [1] is: HCT 116, MTT, 50% inhibition of growth, read-out: HCT 116 IC50.
The mark [2] stands for this setting: HCT 116, MTT, IC90, read-out: HCT 116 IC90.

25 molecules from patent publication US7232912B2, “Indazole compounds, pharmaceutical compositions, and methods for mediating or inhibiting cell proliferation” (Agouron Pharmaceuticals, Inc., priority 2000, dated 2007) can be followed below.

Read-outs that look alike come from different tables or passages of the source.

By IC50 is commonly meant the concentration needed to halve the response being measured. What is called IC90 is the point of the concentration-response curve where the effect stands at 90%. As for `Cc1cncc(-c2ccc3[nH]nc(-c4nc5ccccc5[nH]4)c3c2)c1C` [Example 75], the Ki stood at 9.8 nM on CDK4/cyclin D3 and 1.4 nM on CDK2/cyclin A. Moreover, the IC50 with HCT 116 cell line (setting [1]) was 0.4 µM. The 90% effect concentration (IC90) in the assay with HCT 116 cell line (setting [2]) was found to be 1.3 µM.

Consider `CNC(C)c1cccc2[nH]c(-c3n[nH]c4ccc(-c5cncc6ccccc56)cc34)nc12` (stereo not drawn) [Example 90, {1-[2-(5-Isoquinolin-4-yl-1H-indazol-3-yl)-1H-benzoimidazol-4-yl]-ethyl}-methyl-amine], for which the figures for the Ki at CDK4/cyclin D3 and on CDK2/cyclin A were 0.09 nM and 0.3 nM, respectively. In addition, the half-inhibitory concentration (IC50) in the assay on HCT 116 cell line (setting [1]) was determined as 0.03 µM. Further, the 90% effect concentration (IC90) with HCT 116 cell line (setting [2]) amounted to 0.12 µM.

As for `CCNCc1cncc(-c2ccc3[nH]nc(-c4nc5c(C(=O)NC)cccc5[nH]4)c3c2)c1C` [Example 80, 2-[5-(5-Ethylaminomethyl-4-methyl-pyridin-3-yl)-1H-indazol-3-yl]-1H benzoimidazole-4carboxylic acid methylamide], the Ki on CDK4/cyclin D3 came to 14 nM. In addition, the concentration for an effect of 90% (IC90) in the assay with HCT 116 cell line (setting [2]) amounted to 0.22 µM.

For the molecule `Cc1c(-c2ccc3[nH]nc(-c4nc5ccccc5[nH]4)c3c2)cnc2ccccc12` [Example 76, 3-[3-(1H-Benzoimidazol-2-yl)-1H-indazol-5-yl]-4-methyl-quinoline], the Ki came out at 150 nM at CDK4/cyclin D3 and 27 nM on CDK2/cyclin A. In addition, the IC50 in the assay on HCT 116 cell line (setting [1]) came to 0.5 µM. Moreover, the IC90 with HCT 116 cell line (setting [2]) was 0.5 µM.

For `c1c[nH]c(-c2n[nH]c3ccc(-c4ccncc4)cc23)c1` [Example 18, 5-(4Pyridyl)-3-(2-Pyrrolyl)-1H-indazole], at CDK4/cyclin D3, the Ki was determined as 960 nM.

Consider `COc1cccc(-c2ccc3[nH]nc(-c4ccccc4)c3c2)c1` [Example 86, 5-(3-Methoxyphenyl)-3-(phenyl)-1H-indazole], for which the results for the inhibition at 10 µM at CDK4/cyclin D3 and on CDK2/cyclin A were 18% and 45%, respectively.

As to `Cc1c(CNC(C)C)cncc1-c1ccc2[nH]nc(-c3nc4ccccc4[nH]3)c2c1` [Example 78, {5-[3-(1H-Benzoimidazol-2-yl)-1H-indazol-5-yl]-4-methyl-pyridin-3-ylmethyl}-isopropyl-amine], the Ki on CDK4/cyclin D3 worked out at 5.5 nM; at CDK2/cyclin A, 0.7 nM. In addition, the IC50 in the assay on HCT 116 cell line (HCT-116, read-out: HCT 116 IC50 (uM)) was 0.085 µM. The 90% effect concentration (IC90) with HCT 116 cell line (HCT-116, read-out: HCT 116 IC90 (uM)) was found to be 0.22 µM.

Take `Cc1c(C(N)=O)cncc1-c1ccc2[nH]nc(-c3nc4ccccc4[nH]3)c2c1` [Example 64, 5-[3-(1H-Benzoimidazol-2-yl)-1H-indazol-5-yl]-4-methyl-nicotinamide]: the values for the Ki on CDK4/cyclin D3 and on CDK2/cyclin A were 190 nM and 14 nM, respectively. The half-maximal inhibitory concentration (IC50) in the assay on HCT 116 cell line (setting [1]) was 1.3 µM. The concentration for an effect of 90% (IC90) in the assay with HCT 116 cell line (setting [2]) worked out at 5 µM.

Consider `Cc1cnccc1-c1ccc2[nH]nc(/C=C/c3ccccc3)c2c1` [Example 41, 5-(3-Methyl-pyridin-4-yl)-3-(E)-styryl-1H-indazole], for which the Ki was determined as 78 nM at CDK4/cyclin D3 and 250 nM on CDK2/cyclin A.

With `Fc1cccc(F)c1-c1ccc2[nH]nc(-c3ccccc3)c2c1` [Example 83, 5-(2,6-Difluorophenyl)-3-Phenyl-1H-indazole], the inhibition at 10 µM on CDK4/cyclin D3 and at CDK2/cyclin A was 30% in each case.

For the molecule `Cc1ccccc1-c1ccc2[nH]nc(-c3ccccc3)c2c1` [Example 11, 5-(2-Methylphenyl)-3-phenyl-1H-indazole], the inhibition at 10 µM at CDK4/cyclin D3 worked out at 39%. In addition, the Ki at CDK2/cyclin A stood at 2600 nM.

Regarding `c1ccc(-c2n[nH]c3ccc(-c4cccnc4)cc23)cc1` [Example 14b, 3-Phenyl-5-(pyrid-3-yl)-1H-indazole], on CDK4/cyclin D3 (read-out: CDK4/D % inhibition at 1 μM), the inhibition at 1 µM was determined as 20%.

With `COc1cccc(-c2ccc3[nH]nc(-c4nc5ccccc5[nH]4)c3c2)c1C` [Example 9′, 3-(1H-Benzoimidazol-2-yl)-5-(3-methoxy-2-methyl-phenyl)-1H-indazole], the values for the Ki on CDK4/cyclin D3 and at CDK2/cyclin A were 2200 nM and 670 nM, respectively.

For `Oc1ccc(-c2ccc3[nH]nc(-c4nc5ccccc5[nH]4)c3c2)cc1` [8′, 4-[3-(1H-Benzoimidazol-2-yl)-1H-indazol-5-yl]-phenol], the Ki at CDK4/cyclin D3 is 590 nM; on CDK2/cyclin A, 370 nM.

`COc1ccc(-c2ccc3[nH]nc(-c4nc5ccccc5[nH]4)c3c2)cc1` [Example 7′, 3-(1H-Benzoimidazol-2-yl)-5-(4-methoxyphenyl)-1H-indazole]: the Ki at CDK4/cyclin D3 worked out at 1200 nM; at CDK2/cyclin A, 790 nM.

Regarding `c1ccc(-c2n[nH]c3ccc(-c4ccncc4)cc23)cc1` [Example 14, 3-Phenyl-5-(Pyrid-4-yl)-1H-indazole], the Ki was 2400 nM at CDK4/cyclin D3 and 2500 nM on CDK2/cyclin A.

As to `CCNCc1cncc(-c2ccc3[nH]nc(-c4nc5c(NC(C)=O)cccc5[nH]4)c3c2)c1C` [Example 82, N-2-[5-(5-Ethylaminomethyl-4-methyl-pyridin-3-yl)-1H-indazol-3-yl-1 benzoimidazol-4-yl]-acetamide], the Ki on CDK4/cyclin D3 is 110 nM. For the same molecule, in the assay on HCT 116 cell line (setting [2]), the concentration for an effect of 90% (IC90) was greater than 0.5 µM.

On to `c1ccc2c(-c3ccc4[nH]nc(-c5nc6c(Cn7ccnc7)cccc6[nH]5)c4c3)cncc2c1` [Example 40, 4-[3-(4-Imidazol-1-ylmethyl-1H-benzoimidazol-2-yl)-1H-indazol-5-yl]-isoquinoline], for which the Ki at CDK4/cyclin D3 came out at 2.2 nM; at CDK2/cyclin A it was 0.38 nM.

As for `C(=C\c1ccc2[nH]nc(/C=C/c3ccccc3)c2c1)/c1ccccc1` [Example 2, 3,5-Distyryl-1H-Indazole], the Ki at CDK4/cyclin D3 is 7900 nM.

`O=[N+]([O-])c1ccc2[nH]nc(-c3ccc[nH]3)c2c1` [18b′, 5-Nitro-3-(2-Pyrrolyl)-1H-indazole]: the results for the Ki at CDK4/cyclin D3 and at CDK2/cyclin A were 6600 nM and 3300 nM, respectively.

As for `Oc1cc(F)cc(F)c1-c1ccc2[nH]nc(-c3nc4ccccc4[nH]3)c2c1` [Example 51], the values for the Ki at CDK4/cyclin D3 and at CDK2/cyclin A were 1100 nM and 400 nM, respectively.

Consider `FC(F)(F)c1ccccc1-c1ccc2[nH]nc(-c3ccccc3)c2c1` [Example 12, 3-Phenyl-5-[2-(trifluormethyl)phenyl]-1H-indazole], for which the “CDK4/D % inhibition at 5 μM” value at CDK4/cyclin D3 (at 5 μM) is 19%. In addition, the Ki at CDK2/cyclin A stood at 6300 nM.

With `Cc1cc(O)ccc1-c1ccc2[nH]nc(-c3ccccc3)c2c1` [Example 13, 5-(4-Hydroxy-2-methylphenyl)-3-phenyl-1H-indazole], the Ki was determined as 3400 nM on CDK4/cyclin D3 and 2700 nM on CDK2/cyclin A.

Turning to `c1ccc(CNc2ccc3[nH]nc(-c4ccc[nH]4)c3c2)cc1` [Example 85, 5-(Benzylamino)-3-(2-Pyrrolyl)-1H-indazole], the Ki was 16000 nM at CDK4/cyclin D3 and 6600 nM at CDK2/cyclin A.

Take `O=[N+]([O-])c1ccc2[nH]nc(-c3ccccc3)c2c1` [Intermediate 11a, 5-Nitro-3-phenyl-1H-indazole]: the inhibition at 100 µM on CDK4/cyclin D3 (read-out: CDK4/D % inhibition at 100 μM) came out at 48%. Also, the Ki on CDK2/cyclin A worked out at 13000 nM.
